Experimental data published in patent US11479546B2, “Antimalarial hexahydropyrimidine analogues” (UCB Biopharma SRL, priority 2018, dated 2022).

Tested on: Plasmodium falciparum 3D7
Assay: P. falciparum 3D7 asexual blood stage assay, Assay Procedure Version 2 (SYBR green readout)
Format: cell-based
Conditions: Version 2 of the assay procedure (asterisk *), 72 h incubation in infected erythrocytes, 50,000 nM to 15 nM
Method in brief: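 Parasite growth read as DNA fluorescence (SYBR green lysis overnight, ex 485/em 528 nm) after 72 h drug exposure of 3D7-infected erythrocytes at 0.5% parasitaemia, 5% haematocrit, 37 °C under 1% O2/3% CO2. Compounds tested 15–50,000 nM final, 0.5% DMSO; normalised to mefloquine (100%) and DMSO (0%), biphasic two-site EC50 fitting.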

[1] = Plasmodium falciparum, 3D7, Erythrocyte, 72 h

Row | Compound | IC50 [1] [µM] | IC50 [µM]
1 | CC(C)(C)c1ncc(Nc2cccc([C@]3(C)CC(=O)N(C4CCC(F)(F)CC4)C(=N)N3)c2Cl)cn1 [Example 141, (6S)-6-{3-[(2-tert-Butyl-pyrimidin-5-yl)amino]-2-chloro-phenyl]-3-(4,4-difluoro-cyclohexyl)-2-imino-6-methyl-hexahydropyrimidin-4-one] | 0.18 | –
2 | C[C@@]1(c2cccc(Nc3ccc(C4CC4)nc3)c2Cl)CC(=O)N(C2CCC(F)(F)CC2)C(=N)N1 [Example 142, (6S)-6-{2-Chloro-3-[(6-cyclo-propylpyridin-3-yl)amino]-phenyl}-3-(4,4-difluoro-cyclohexyl)-2-imino-6-methyl-hexahydropyrimidin-4-one] | 0.232 | –
3 | Cc1ccc(Nc2cccc([C@]3(C)CC(=O)N([C@H]4C[C@](O)(C(F)(F)F)C4)C(=N)N3)c2Cl)cn1 [Example 152, (6S)-6-{2-Chloro-3-[(6-methyl-pyridin-3-yl)amino]phenyl}-3-[3-hydroxy-3-(trifluoromethyl)-cyclobutyl]-2-imino-6-methyl-hexahydropyrimidin-4-one (cis isomer)] | 0.613 | –
4 | Cc1ccc(Nc2cccc([C@]3(C)CC(=O)N([C@H]4C[C@@](O)(C(F)(F)F)C4)C(=N)N3)c2Cl)cn1 [Example 153, (6S)-6-{2-Chloro-3-[(6-methyl-pyridin-3-yl)amino]phenyl}-3-[3-hydroxy-3-(trifluoromethyl)-cyclobutyl]-2-imino-6-methyl-hexahydropyrimidin-4-one (trans isomer)] | 3.22 | –
5 | C[C@@]1(c2cccc(Nc3ccc(C(F)(F)F)cc3)c2Cl)CC(=O)N([C@H]2C[C@@](C)(O)C2)C(=N)N1 [Example 174, (6S)-6-{2-Chloro-3-[4-(trifluoromethyl)anilino]-phenyl}-3-(3-hydroxy-3-methyl-cyclobutyl)-2-imino-6-methyl-hexahydropyrimidin-4-one] | 0.764 | –
6 | C[C@@]1(c2cccc(Nc3ccc(Cl)cc3)c2Cl)CC(=O)N([C@H]2C[C@@](C)(O)C2)C(=N)N1 [Example 176, (6S)-6-[2-Chloro-3-(4-chloro-anilino)phenyl]-3-(3-hydroxy-3-methylcyclobutyl)-2-imino-6-methylhexahydropyrimidin-4-one] | 0.46 | –
7 | CC[C@]1(O)C[C@H](N2C(=N)N[C@](C)(c3cccc(Nc4ccc(F)cc4)c3Cl)CC2=O)C1 [Example 177, (6S)-6-[2-Chloro-3-(4-fluoro-anilino)phenyl]-3-(3-ethyl-3-hydroxycyclobutyl)-2-imino-6-methylhexahydropyrimidin-4-one (trans isomer)] | 2.45 | –
8 | CC[C@]1(O)C[C@@H](N2C(=N)N[C@](C)(c3cccc(Nc4ccc(F)cc4)c3Cl)CC2=O)C1 [Example 178, (6S)-6-[2-Chloro-3-(4-fluoro-anilino)phenyl]-3-(3-ethyl-3-hydroxycyclobutyl)-2-imino-6-methylhexahydropyrimidin-4-one (cis isomer)] | 0.428 | –
9 | C[C@@]1(c2cccc(Nc3ccc(F)cc3)c2Cl)CC(=O)N(C2CC(O)(C(F)(F)F)C2)C(=N)N1 [Example 179, (6S)-6-[2-Chloro-3-(4-fluoro-anilino)phenyl]-3-[3-hydroxy-3-(trifluoromethyl)cyclobutyl]-2-imino-6-methyl-hexahydro-pyrimidin-4-one (cis isomer)] | 0.381 | –
10 | CC1(C#N)CC(N2C(=N)N[C@](C)(c3cccc(Nc4ccc(F)cc4)c3Cl)CC2=O)C1 [Example 180, 3-{(4S)-4-[2-Chloro-3-(4-fluoroanilino)phenyl]-2-imino-4-methyl-6-oxohexahydro-pyrimidin-1-yl}-1-methyl-cyclobutanecarbonitrile (trans isomer)] | – | 0.629
11 | C[C@@]1(c2cccc(Nc3ccc(C#N)cn3)c2Cl)CC(=O)N(C2CCOCC2)C(=N)N1 [Example 183, 6-{2-Chloro-3-[(4S)-2-imino-4-methyl-6-oxo-1-(tetrahydro-pyran-4-yl)hexahydropyrimidin-4-yl]anilino}pyridine-3-carbo-nitrile] | 0.582 | –
12 | C[C@@]1(c2cccc(Nc3ncccc3C#N)c2Cl)CC(=O)N(C2CCOCC2)C(=N)N1 [Example 184, 2-{2-Chloro-3-[(4S)-2-imino-4-methyl-6-oxo-1-(tetrahydro-pyran-4-yl)hexahydropyrimidin-4-yl]anilino}pyridine-3-carbo-nitrile] | 0.217 | –
13 | C[C@@]1(c2cccc(Nc3cnc4ccccn34)c2Cl)CC(=O)N(C2CCOCC2)C(=N)N1 [Example 185, (6S)-6-[2-Chloro-3-(imidazo-[1,2-a]pyridin-3-ylamino)-phenyl]-2-imino-6-methyl-3-(tetrahydropyran-4-yl)-hexahydropyrimidin-4-one] | 0.565 | –
14 | C[C@@]1(c2cccc(Nc3ncc4ccccn34)c2Cl)CC(=O)N(C2CCOCC2)C(=N)N1 [Example 187, (6S)-6-[2-Chloro-3-(imidazo-[1,5-a]pyridin-3-ylamino)-phenyl]-2-imino-6-methyl-3-(tetrahydropyran-4-yl)-hexahydropyrimidin-4-one] | 0.385 | –

The next lines start with the values.

Row | IC50 [1] [µM] | IC50 [µM] | Compound
15 | 3.97 | – | Cc1ccc(Nc2cccc([C@]3(C)CC(=O)N([C@H]4C[C@](O)(C(C)C)C4)C(=N)N3)c2Cl)cn1 [Example 134, (6S)-6-{2-Chloro-3-[(6-methyl-pyridin-3-yl)amino]phenyl}-3-(3-hydroxy-3-isopropylcyclo-butyl)-2-imino-6-methyl-hexahydropyrimidin-4-one]
16 | 0.132 | – | Cc1ccc(Nc2cccc([C@]3(C)CC(=O)N(C4CCC(F)(F)CC4)C(=N)N3)c2Cl)cn1 [Example 139, (6S)-6-{2-Chloro-3-[(6-methyl-pyridin-3-yl)amino]phenyl}-3-(4,4-difluorocyclohexyl)-2-imino-6-methylhexahydro-pyrimidin-4-one]
17 | 0.704 | – | C[C@@]1(c2cccc(Nc3ccc(OC(F)F)nc3)c2Cl)CC(=O)N(C2CCC(F)(F)CC2)C(=N)N1 [Example 140, (6S)-6-(2-Chloro-3-{[6-(difluoromethoxy)pyridin-3-yl]-amino}phenyl)-3-(4,4-difluoro-cyclohexyl)-2-imino-6-methyl-hexahydropyrimidin-4-one]
18 | 0.884 | – | C[C@@]1(c2cccc(Nc3ccc(C4CC4)nc3)c2Cl)CC(=O)N([C@H]2C[C@](O)(C(F)(F)F)C2)C(=N)N1 [Example 154, (6S)-6-{2-Chloro-3-[(6-cyclo-propylpyridin-3-yl)amino]-phenyl}-3-[3-hydroxy-3-(trifluoromethyl)cyclobutyl]-2-imino-6-methylhexahydro-pyrimidin-4-one (cis isomer)]
19 | – | 0.201 | CC1(C#N)CC(N2C(=N)N[C@](C)(c3cccc(Nc4ccc(F)cc4)c3Cl)CC2=O)C1 [Example 181, 3-{(4S)-4-[2-Chloro-3-(4-fluoroanilino)phenyl]-2-imino-4-methyl-6-oxohexahydro-pyrimidin-1-yl}-1-methyl-cyclobutanecarbonitrile (cis isomer)]
20 | 0.466 | – | C[C@@]1(c2cccc(Nc3ccc(Cl)cn3)c2Cl)CC(=O)N(C2CCOCC2)C(=N)N1 [Example 182, (6S)-6-{2-Chloro-3-[(5-chloro-pyridin-2-yl)amino]phenyl}-2-imino-6-methyl-3-(tetrahydro-yran-4-yl)-hexahydropyrimidin-4-one]
21 | 0.456 | – | Cc1nn(-c2ccccc2)c(C)c1Nc1cccc([C@]2(C)CC(=O)N(C3CCOCC3)C(=N)N2)c1Cl [Example 186, (6S)-6-{2-Chloro-3-[(3,5-dimethyl-1-phenylpyrazol-4-yl)-amino]phenyl}-2-imino-6-methyl-3-(tetrahydropyran-4-yl)hexahydropyrimidin-4-one]
